Experimental data taken from patent US9561228B2 (Celgene Avilomics Research, Inc., priority 2013, dated 2017).
Where two headings read alike, the source gives them in different places.

Tests used:
MEK1 activated ERK1 = biological target: T1, MEK1 activated ERK1 (Homo sapiens, UniProt P27361); assay: Omnia continuous-read kinase assay for potency against MEK1 activated ERK1; format: biochemical
T1 construct: purchased Millipore (Billerica, Mass.) 14-439-K
In short: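 Apparent IC50 came from initial reaction slopes (RFU vs time) plotted against log inhibitor with a variable-slope fit. Reactions were started with ERK1 (4 nM final) added to 50 μM ATP, roughly at its appKM, and 10 μM Sox-conjugated ST17 peptide in 20 mM Tris pH 7.5, 5 mM MgCl2. Fluorescence was monitored every 71 seconds.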

[1] = system: ERK1/2 phosphorylation of p90RSK in A375 cells; assay: Detection of total and phosphor-RSK by MSD ELISA (A375); format: cell-based; conditions: Homo sapiens, A-375, read-out: ERK1/ERK2 PRSK A375 EC50
In short: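 A375 cells serum-starved overnight in DMEM/0.1% FBS, then treated 2 h at 37° C with compound (1000× DMSO dilutions into medium). Lysates captured on RSK antibody-coated MSD plates; phospho-RSK (Ser380) and total RSK detected with SulfoTag secondary antibodies by electrochemiluminescence.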

T1 sequence (P27361 whole entry): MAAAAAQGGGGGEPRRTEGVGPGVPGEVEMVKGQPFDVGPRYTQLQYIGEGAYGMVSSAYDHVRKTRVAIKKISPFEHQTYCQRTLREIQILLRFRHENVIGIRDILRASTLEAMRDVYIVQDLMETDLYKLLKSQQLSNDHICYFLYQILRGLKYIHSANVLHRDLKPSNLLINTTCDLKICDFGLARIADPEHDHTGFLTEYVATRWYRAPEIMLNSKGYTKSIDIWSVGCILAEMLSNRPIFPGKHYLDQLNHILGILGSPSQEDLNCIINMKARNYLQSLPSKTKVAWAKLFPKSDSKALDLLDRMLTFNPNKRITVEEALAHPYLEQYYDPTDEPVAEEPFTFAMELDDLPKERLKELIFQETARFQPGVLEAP

| SMILES | IC50 (MEK1 activated ERK1; ATP at KM, WT) [nM] | EC50 [1] [nM] | IC50 (MEK1 activated ERK1; MEK1 activated ERK1, ATP at KM, read-out: ERK1 Omnia WT ATP KM IC50) [nM] |
| --- | --- | --- | --- |
| C=CC(=O)Nc1cc(CN2CCN(C(C)=O)C[C@H]2C)ccc1Nc1nc(Nc2cc(OC)ncc2C)ncc1C(F)(F)F [Compound I-422, (R)—N-(5-((4-acetyl-2-methylpiperazin-1-yl)methyl)-2-((2-((2-methoxy-5-methylpyridin-4-yl)amino)-5-(trifluoromethyl)pyrimidin-4-yl)amino)phenyl)acrylamide] | < 100 | 101 to 500 | – |
| C=CC(=O)Nc1cc(CN2CCN(C(C)=O)CC2)ccc1Nc1nc(Nc2cc(OC)ncc2C)ncc1C(F)(F)F [Compound I-381, N-(5-((4-acetylpiperazin-1-yl)methyl)-2-((2-((2-methoxy-5-methylpyridin-4-yl)amino)-5-(trifluoromethyl)pyrimidin-4-yl)amino)phenyl)acrylamide] | < 100 | < 100 | – |
| C=CC(=O)Nc1cc(C)ccc1Nc1nc(Nc2cc(OC)ncc2Cl)ncc1C(F)(F)F [Compound I-351, N-(2-((2-((5-chloro-2-methoxypyridin-4-yl)amino)-5-(trifluoromethyl)pyrimidin-4-yl)amino)-5-methylphenyl)acrylamide] | 101 to 500 | 101 to 500 | – |
| C=CC(=O)Nc1cc(C)ccc1Nc1nc(Nc2cc(OCCO)ncc2C)ncc1C(F)(F)F [Compound I-376, N-(2-((2-((2-(2-hydroxyethoxy)-5-methylpyridin-4-yl)amino)-5-(trifluoromethyl)pyrimidin-4-yl)amino)-5-methylphenyl)acrylamide] | 101 to 500 | < 100 | – |
| C=CC(=O)Nc1cc(C)ccc1Nc1nc(Nc2c[nH]c(=O)cc2C)ncc1C(F)(F)F [Compound I-370, N-(5-methyl-2-((2-((4-methyl-6-oxo-1,6-dihydropyridin-3-yl)amino)-5-(trifluoromethyl)pyrimidin-4-yl)amino)phenyl)acrylamide] | 101 to 500 | > 1000 | – |
| C=CC(=O)Nc1cc(O[C@H](C)C(=O)N2CCN(C(C)=O)CC2)ccc1Nc1nc(Nc2cc(OC)ncc2C)ncc1C(F)(F)F [Compound I-409, (R)—N-(5-((1-(4-acetylpiperazin-1-yl)-1-oxopropan-2-yl)oxy)-2-((2-((2-methoxy-5-methylpyridin-4-yl)amino)-5-(trifluoromethyl)pyrimidin-4-yl)amino)phenyl)acrylamide] | < 100 | > 1000 | – |
| C=CC(=O)Nc1cc(CN2CCN(C(=O)c3ccccn3)CC2)ccc1Nc1nc(Nc2cc(OC)ncc2C)ncc1C(F)(F)F [Compound I-388, N-(2-((2-((2-methoxy-5-methylpyridin-4-yl)amino)-5-(trifluoromethyl)pyrimidin-4-yl)amino)-5-((4-picolinoylpiperazin-1-yl)methyl)phenyl)acrylamide] | 101 to 500 | < 100 | – |
| C=CC(=O)Nc1cc(C)ccc1Nc1nc(Nc2cc(-c3c[nH]cn3)ccc2C)ncc1C(F)(F)F [Compound I-378, N-(2-((2-((5-(1H-imidazol-4-yl)-2-methylphenyl)amino)-5-(trifluoromethyl)pyrimidin-4-yl)amino)-5-methylphenyl)acrylamide] | 501 to 999 | 501 to 999 | – |
| C=CC(=O)Nc1cc(CN2CCOCC2)ccc1Nc1nc(Nc2cc(OC)ncc2C)ncc1C(F)(F)F [Compound I-399, N-(2-((2-((2-methoxy-5-methylpyridin-4-yl)amino)-5-(trifluoromethyl)pyrimidin-4-yl)amino)-5-(morpholinomethyl)phenyl)acrylamide] | 101 to 500 | 501 to 999 | – |
| C=CC(=O)Nc1cc(OCCN)ccc1Nc1nc(Nc2cc(OC)ncc2C)ncc1C(F)(F)F [Compound I-396, N-(5-(2-aminoethoxy)-2-((2-((2-methoxy-5-methylpyridin-4-yl)amino)-5-(trifluoromethyl)pyrimidin-4-yl)amino)phenyl)acrylamide] | < 100 | 101 to 500 | – |
| C=CC(=O)Nc1cc(C)ccc1Nc1nc(Nc2nc(OC)ncc2C(F)(F)F)ncc1C(F)(F)F [Compound I-355, N-(2-((2-((2-methoxy-5-(trifluoromethyl)pyrimidin-4-yl)amino)-5-(trifluoromethyl)pyrimidin-4-yl)amino)-5-methylphenyl)acrylamide] | 101 to 500 | 101 to 500 | – |
| C=CC(=O)Nc1cc(C)ccc1Nc1nc(Nc2cc(N[C@H]3CC[C@](C)(O)CC3)nc(OC)c2)ncc1C(F)(F)F [Compound I-327, N-(2-((2-((2-((trans-4-hydroxy-4-methylcyclohexyl)amino)-6-methoxypyridin-4-yl)amino)-5-(trifluoromethyl)pyrimidin-4-yl)amino)-5-methylphenyl)acrylamide] | – | < 100 | 101 to 500 |
| C=CC(=O)Nc1cc(CN2CCN(C(=O)c3ccccn3)CC2)ccc1Nc1nc(Nc2nc(OC)ncc2C)ncc1C(F)(F)F [Compound I-391, N-(2-((2-((2-methoxy-5-methylpyrimidin-4-yl)amino)-5-(trifluoromethyl)pyrimidin-4-yl)amino)-5-((4-picolinoylpiperazin-1-yl)methyl)phenyl)acrylamide] | 101 to 500 | > 1000 | – |
| C=CC(=O)Nc1cc(C)ccc1Nc1nc(Nc2cc(OC)ncc2C(F)F)ncc1C(F)(F)F [Compound I-431, N-(2-((2-((5-(difluoromethyl)-2-methoxypyridin-4-yl)amino)-5-(trifluoromethyl)pyrimidin-4-yl)amino)-5-methylphenyl)acrylamide] | 501 to 999 | 101 to 500 | – |
| C=CC(=O)Nc1cc(C)ccc1Nc1nc(Nc2cc(OC)ncc2CC)ncc1C(F)(F)F [Compound I-408, N-(2-((2-((5-ethyl-2-methoxypyridin-4-yl)amino)-5-(trifluoromethyl)pyrimidin-4-yl)amino)-5-methylphenyl)acrylamide] | 101 to 500 | 101 to 500 | – |
| C=CC(=O)Nc1cc(CN2CCN(S(C)(=O)=O)CC2)ccc1Nc1nc(Nc2cc(OC)ncc2C)ncc1C(F)(F)F [Compound I-384, N-(2-((2-((2-methoxy-5-methylpyridin-4-yl)amino)-5-(trifluoromethyl)pyrimidin-4-yl)amino)-5-((4-(methylsulfonyl)piperazin-1-yl)methyl)phenyl)acrylamide] | < 100 | < 100 | – |
| C=CC(=O)Nc1cc(C)c(F)cc1Nc1nc(Nc2nc(OC)ncc2C)ncc1C(F)(F)F [Compound I-377, N-(4-fluoro-2-((2-((2-methoxy-5-methylpyrimidin-4-yl)amino)-5-(trifluoromethyl)pyrimidin-4-yl)amino)-5-methylphenyl)acrylamide] | < 100 | < 100 | – |
| C=CC(=O)Nc1cc(C)ccc1Nc1nc(Nc2cnc(OC)cc2C)ncc1C(F)(F)F [Compound I-350, N-(2-((2-((6-methoxy-4-methylpyridin-3-yl)amino)-5-(trifluoromethyl)pyrimidin-4-yl)amino)-5-methylphenyl)acrylamide] | 501 to 999 | > 1000 | – |
| C=CC(=O)Nc1cc(C)ccc1Nc1nc(NC2COC2)ncc1C(F)(F)F [Compound I-420, N-(5-methyl-2-((2-(oxetan-3-ylamino)-5-(trifluoromethyl)pyrimidin-4-yl)amino)phenyl)acrylamide] | > 1000 | > 1000 | – |
| C=CC(=O)Nc1cc(OCC(N)=O)ccc1Nc1nc(NC2CCOCC2)ncc1C(F)(F)F [Compound I-387, N-(5-(2-amino-2-oxoethoxy)-2-((2-((tetrahydro-2H-pyran-4-yl)amino)-5-(trifluoromethyl)pyrimidin-4-yl)amino)phenyl)acrylamide] | 101 to 500 | 101 to 500 | – |
